{"source": "paper PMC8605905", "about": "(Oxidative Medicine and Cellular Longevity, 2021)", "key": {"[1]": {"system": "Acetylcholinesterase (AChE)", "test": "AChE activity in Aβ-GFP cells", "type": "cell-based", "details": "5 μM, vs untreated cells", "method": "(§1) Aβ-GFP or ∆K280 tauRD-DsRed SH-SY5Y cells were seeded into 6-well plates (5 × 10^5/well) and treated with retinoic acid, coumarin-chalcone derivatives, and doxycycline as previously described. On day 8, cells were collected and lysates were prepared with six freeze/thaw cycles. The supernatant was collected by centrifugation, followed by measurement of the caspase 1 activity in 50 μg aliquots of cell extract using the ICE fluorometric assay kit (BioVision, Milpitas, CA, USA). Following incubation of the mixture at 37°C for 2 h, fluorescence was measured with excitation/emission wavelengths at 400/505 nm (FLx800 fluorescence microplate reader). In addition, the collected cells were lysed by sonication. Acetylcholinesterase (AChE) activity in the supernatant was determined in 10 μg aliquots of cell extracts using the AChE activity assay kit (Sigma-Aldrich) according to the manufacture's protocol. Finally, the absorbance at 412 nm was measured using a Multiskan GO spectrophotometer (Thermo Fisher Scientific)."}, "[2]": {"system": "∆K280 tauRD-DsRed SH-SY5Y cells", "test": "High content analysis of ΔK280 tauRD-DsRed fluorescence", "type": "cell-based, Human", "details": "tested 2.5–10 μM", "method": "Human 293-derived Flp-In-293 cells (Invitrogen, Madison, WI, USA) were cultivated in Dulbecco's modified Eagle's medium (DMEM) containing 10% foetal bovine serum (FBS) (Thermo Fisher Scientific). Human neuroblastoma SH-SY5Y-derived Aβ-GFP [23] and ∆K280 tauRD-DsRed cells were kept in DMEM/nutrient mixture F12 (DMEM/F12) containing 10% FBS, 5 μg/ml blasticidin, and 100 μg/ml hygromycin (InvivoGen, San Diego, CA, USA). Doxycycline (Sigma-Aldrich) was applied to induce the expression of Aβ-GFP (5 μg/ml doxycycline) or ∆K280 tauRD-DsRed (2 μg/ml doxycycline).\n(§2) On day 1, Aβ-GFP or ∆K280 tauRD-DsRed SH-SY5Y cells were seeded into 96-well plates (2.5 × 10^4/well) and treated with retinoic acid (10 μM; Sigma-Aldrich) to prompt neuronal differentiation. […] On day 8, cells were stained with Hoechst 33342 (0.1 μg/ml; Sigma-Aldrich) for 30 min, and cell images were automatically captured at excitation/emission wavelengths of 482/[…] (GFP fluorescence) or 543/593 nm (DsRed fluorescence) using a high content analysis (HCA) system (Micro Confocal High-Content Imaging System). Image Acquisition and Analysis Software (MetaXpress) (Molecular Devices, Sunnyvale, CA, USA) was used to analyse the images. CellROX Orange (5 μM; Molecular Probes, Eugene, OR, USA) (for Aβ-GFP cells) or dichloro-dihydro-fluorescein diacetate (DCFH-DA, 10 μM; Invitrogen) (for ∆K280 tauRD-DsRed cells) was added to the cells and incubated at 37°C for 30 min. The HCA system was used to measure intracellular ROS at 531/593 nm (CellROX Orange fluorescence) or 482/536 nm (DCFH-DA fluorescence) of excitation/emission wavelengths."}, "Aβ-GFP SH-SY5Y cells [3]": {"system": "Aβ-GFP SH-SY5Y cells", "test": "ROS assay (CellROX Orange) in Aβ-GFP cells", "type": "cell-based, Human", "details": "tested 1.2–5 μM", "method": "as §2"}, "caspase 1 [4]": {"system": "caspase 1", "test": "Caspase 1 activity in ΔK280 tauRD-DsRed cells", "type": "cell-based, Human", "details": "10 μM, ∆K280 tauRD-DsRed cells", "method": "as §1"}, "[5]": {"molecular_target": "T1, Aβ and ΔK280 tauRD aggregates (Homo sapiens, UniProt P05067+P10636, DEL597-597)", "T1 construct": "To investigate Aβ and ΔK280 tauRD aggregates", "test": "TEM examination of Aβ and tau aggregates", "details": "10 μM", "excerpt": "To investigate Aβ and ΔK280 tauRD aggregates, samples of the fibrils formed with and without treatment of a tested compound were placed on a 200-mesh copper (holey-carbon) grid and visualized using a JEM-1230 transmission electron microscope (TEM) (JEOL, Tokyo, Japan) at an accelerating voltage of 100 kV."}, "[6]": {"system": "∆K280 tauRD-DsRed SH-SY5Y cells", "test": "Real-time PCR of tauRD-DsRed RNA", "type": "cell-based, Human", "details": "10 μM", "method": "To measure the Aβ-GFP/tauRD-DsRed RNA expression on day 8, total RNA was extracted from collected cells and reverse-transcribed to cDNA (SuperScript III reverse transcriptase; Invitrogen, Waltham, MA, USA). Real-time quantitative PCR was performed using 100 ng of cDNA and the gene-specific TaqMan fluorogenic probe PN4331348 (EGFP) or customized Assays-by-Design probe for DsRed and 4326321E (HPRT1) (StepOnePlus Real-time PCR system, Applied Biosystems, Foster City, CA, USA). The RNA expression level was calculated using the formula 2^ΔCt, ΔCT = CT (control) − CT (target), in which CT indicates the cycle threshold."}, "caspase 1 [7]": {"system": "caspase 1", "test": "Caspase 1 activity in Aβ-GFP cells", "type": "cell-based, Human", "details": "5 μM, vs untreated cells", "method": "as §1"}, "Aβ-GFP SH-SY5Y cells [8]": {"system": "Aβ-GFP SH-SY5Y cells", "test": "High content analysis of Aβ-GFP fluorescence", "type": "cell-based, Human", "method": "Human neuroblastoma SH-SY5Y-derived Aβ-GFP [23] and ∆K280 tauRD-DsRed cells were kept in DMEM/nutrient mixture F12 (DMEM/F12) containing 10% FBS, 5 μg/ml blasticidin, and 100 μg/ml hygromycin (InvivoGen, San Diego, CA, USA). Doxycycline (Sigma-Aldrich) was applied to induce the expression of Aβ-GFP (5 μg/ml doxycycline) or ∆K280 tauRD-DsRed (2 μg/ml doxycycline).\nOn day 1, Aβ-GFP or ∆K280 tauRD-DsRed SH-SY5Y cells were seeded into 96-well plates (2.5 × 10^4/well) and treated with retinoic acid (10 μM; Sigma-Aldrich) to prompt neuronal differentiation. […] Image Acquisition and Analysis Software (MetaXpress) (Molecular Devices, Sunnyvale, CA, USA) was used to analyse the images. CellROX Orange (5 μM; Molecular Probes, Eugene, OR, USA) (for Aβ-GFP cells) or dichloro-dihydro-fluorescein diacetate (DCFH-DA, 10 μM; Invitrogen) (for ∆K280 tauRD-DsRed cells) was added to the cells and incubated at 37°C for 30 min."}}}
{"smiles": "CN(C)c1ccc(/C=C/C(=O)c2c(O)c3ccccc3oc2=O)cc1", "note": "[LM-021, (E)-3-(3-(4-(dimethylamino)phenyl)acryloyl)-4-hydroxy-2H-chromen-2-one]", "values": [{"measurement": "AChE activity", "setting": "[1]", "result": "reduced"}, {"measurement": "EC50", "setting": "[2]; Homo sapiens, ∆K280 tauRD-DsRed SH-SY5Y cells, read-out: Extrapolated EC50 in inhibiting ∆K280 tauRD aggregation (DsRed fluorescence)", "result": 10, "unit": "µM"}, {"measurement": "Concentration significantly elevating DsRed fluorescence intensity", "setting": "[2]; day 8", "result": "5 to 10", "unit": "µM"}, {"measurement": "Concentration effectively decreasing ROS levels caused by Aβ overexpression", "setting": "Aβ-GFP SH-SY5Y cells [3]", "result": "1.2 to 5", "unit": "µM"}, {"measurement": "Caspase 1 activity", "setting": "caspase 1 [4]", "result": "lowered caspase 1 activity"}, {"measurement": "Aβ and tau aggregate structures by TEM", "setting": "[5]", "result": "reduced amyloid aggregates"}, {"measurement": "∆K280 tauRD-DsRed RNA level", "setting": "[6]", "result": "did not significantly alter"}, {"measurement": "Caspase 1 activity", "setting": "caspase 1 [7]", "result": "reduced"}, {"measurement": "Toxicity in SH-SY5Y cells", "setting": "Aβ-GFP SH-SY5Y cells [8]; Aβ-GFP and ΔK280 tauRD-DsRed SH-SY5Y cells (Figures 3 and 4)", "result": "low toxicity"}, {"measurement": "EC50", "setting": "Aβ-GFP SH-SY5Y cells [8]; Homo sapiens, Aβ-GFP SH-SY5Y cells, tested 1.2–5 μM, read-out: EC50 in Aβ aggregation inhibition (GFP fluorescence)", "result": 5.1, "unit": "µM"}, {"measurement": "Concentration significantly augmenting green fluorescence intensity (Aβ-GFP)", "setting": "Aβ-GFP SH-SY5Y cells [8]; tested 1.2–5 μM, day 8", "result": "1.2 to 5", "unit": "µM"}]}
